Experimental data published in US8835428B2, “Diacylglycerol acyltransferase inhibitors” (Piramal Enterprises Limited, priority 2008, dated 2014).

Molecular target: T1, hDGAT1 (Homo sapiens, UniProt O75907)
T1 construct: host or cells: Sf9 insect cells (baculovirus); microsomal preparation
T1 sequence (O75907 1-488): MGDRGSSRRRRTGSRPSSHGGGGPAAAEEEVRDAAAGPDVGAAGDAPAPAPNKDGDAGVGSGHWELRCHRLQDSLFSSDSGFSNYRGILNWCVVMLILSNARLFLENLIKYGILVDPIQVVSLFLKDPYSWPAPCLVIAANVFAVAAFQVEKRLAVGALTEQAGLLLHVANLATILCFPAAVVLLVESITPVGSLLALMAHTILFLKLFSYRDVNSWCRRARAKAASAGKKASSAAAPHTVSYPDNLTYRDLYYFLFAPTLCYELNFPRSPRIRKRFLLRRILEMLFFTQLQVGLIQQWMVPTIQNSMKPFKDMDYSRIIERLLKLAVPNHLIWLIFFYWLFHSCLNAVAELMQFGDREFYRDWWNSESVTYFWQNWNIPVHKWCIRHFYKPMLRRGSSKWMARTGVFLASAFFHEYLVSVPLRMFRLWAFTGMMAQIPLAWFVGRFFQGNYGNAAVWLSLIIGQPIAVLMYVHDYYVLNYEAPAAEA
Test: In-vitro DGAT1 assay (hDGAT1 microsomes from Sf9 cells, 14C oleoyl CoA, triglyceride formation)
Format: biochemical
Settings: At 10 μM
Outline: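 Compounds tested in duplicate at 10, 5 and 1 μM for 10 min at 37 °C. Reaction: Sf9-expressed hDGAT1 microsomes (2.5–10 μg), [14C]oleoyl-CoA plus 409.5–1638 μM dioleoylglycerol, pH 7.4 Tris-HCl with fatty-acid-free BSA. Radiolabelled triglyceride extracted into heptane and scintillation-counted.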

With `COC(=O)[C@@H](NC(=O)c1cc(-c2ccc(NC(=O)Nc3ccc(F)cc3)c(F)c2)no1)C(C)C` [Example 96] the “% inhibition of hDGAT1” value was “++ (>50% Inhibition ≦75)”.
For `CC(C)[C@H](NC(=O)c1cc(-c2ccc(NC(=O)Nc3ccc(F)cc3)c(F)c2)no1)C(=O)O` [Example 97], the “% inhibition of hDGAT1” value was “+++ (>75% Inhibition ≦100)”.

Compared with `Cc1cc(-c2cc(C(=O)NC(C(=O)O)C(C)C)on2)ccc1NC(=O)Nc1c(F)cccc1F` (stereo not drawn) [Example 98, 2-(3-(4-(3-(2,6-Difluorophenyl)ureido)-3-methylphenyl)isoxazole-5-carboxamido)-3-methylbutanoic acid], `Cc1cc(-c2cc(C(=O)NC(C)C(=O)O)on2)ccc1NC(=O)Nc1c(F)cccc1F` (stereo not drawn) [Example 102, 2-(3-(4-(3-(2,6-Difluorophenyl)ureido)-3-methylphenyl)isoxazole-5-carboxamido)propanoic acid] is lower in inhibition at 10 µM: 50 to 75% for the first, 0 to 50% for the second.

`Cc1cc(-c2cc(C(=O)NC(CC(C)C)C(=O)O)on2)ccc1NC(=O)Nc1c(F)cccc1F` (stereo not drawn) [Example 100, 2-(3-(4-(3-(2,6-Difluorophenyl)ureido)-3-methylphenyl)isoxazole-5-carboxamido)-4-methylpentanoic acid] and `COC(=O)C(C)NC(=O)c1cc(-c2ccc(NC(=O)Nc3c(F)cccc3F)c(C)c2)no1` (stereo not drawn) [Example 101, Methyl 2-(3-(4-(3-(2,6-difluorophenyl)ureido)-3-methylphenyl)isoxazole-5-carboxamido)propanoate] fall in the same range of inhibition at 10 µM: 0 to 50% for the first, 0 to 50% for the second.

`Cc1cc(-c2cc(C(=O)NC(C(=O)O)C(C)C)on2)ccc1NC(=O)Nc1ccc(F)cc1F` (stereo not drawn) [Example 103, 2-(3-(4-(3-(2,4-Difluorophenyl)ureido)-3-methylphenyl)isoxazole-5-carboxamido)-3-methylbutanoic acid] and `CC(C)C(NC(=O)c1cc(-c2ccc(NC(=O)Nc3ccc(F)cc3F)cc2)no1)C(=O)O` (stereo not drawn) [Example 112, 2-(3-(4-(3-(2,4-Difluorophenyl)ureido)phenyl)isoxazole-5-carboxamido)-3-methylbutanoic acid] fall in the same range of inhibition at 10 µM: 75 to 100% for the first, 75 to 100% for the second.

First: CC(C)C(NC(=O)c1nc(-c2ccc(NC(=O)Nc3ccc(F)cc3F)cc2)no1)C(=O)O (stereo not drawn) [Example 104, 2-(3-(4-(3-(2,4-difluorophenyl)ureido)phenyl)-1,2,4-oxadiazole-5-carboxamido)-3-methylbutanoic acid]
Second: COC(=O)C(NC(=O)c1cc(-c2ccc(NC(=O)Nc3ccc(F)cc3F)cc2)no1)C(C)C (stereo not drawn) [Example 111, Methyl 2-(3-(4-(3-(2,4-difluorophenyl)ureido)phenyl)isoxazole-5-carboxamido)-3-methylbutanoate]
The inhibition at 10 µM of the first is higher: 75 to 100% for the first, 50 to 75% for the second.

First: COC(=O)C(NC(=O)c1cc(-c2ccc(NC(=O)Nc3ccccc3F)cc2)no1)C(C)C (stereo not drawn) [Example 105, 2-[(3-{4-[3-(2-Fluoro-phenyl)ureido]-phenyl}-isoxazole-5-carbonyl)-amino]-3-methyl-butyric acid methyl ester]
Second: CC(C)C(NC(=O)c1cc(-c2ccc(NC(=O)Nc3ccccc3F)cc2)no1)C(=O)O (stereo not drawn) [Example 106, 2-(3-(4-(3-(2-Fluorophenyl)ureido)phenyl)isoxazole-5-carboxamido)-3-methylbutanoic acid]
The inhibition at 10 µM of the first is lower: 50 to 75% for the first, 75 to 100% for the second.

First: COC(=O)C(NC(=O)c1cc(-c2ccc(NC(=O)NCc3ccccc3)cc2)no1)C(C)C (stereo not drawn) [Example 107, Methyl 2-(3-(4-(3-benzylureido)phenyl)isoxazole-5-carboxamido)-3-methylbutanoate]
Second: CC(C)C(NC(=O)c1cc(-c2ccc(NC(=O)NCc3ccccc3)cc2)no1)C(=O)O (stereo not drawn) [Example 108, 2-(3-(4-(3-Benzylureido)phenyl)isoxazole-5-carboxamido)-3-methylbutanoic acid]
The inhibition at 10 µM of the first is lower: 0 to 50% for the first, 50 to 75% for the second.

`COC(=O)C(CC(C)C)NC(=O)c1cc(-c2ccc(NC(=O)NCc3ccccc3)cc2)no1` (stereo not drawn) [Example 109, Methyl 2-(3-(4-(3-benzylureido)phenyl)isoxazole-5-carboxamido)-4-methylpentanoate] and `CC(C)CC(NC(=O)c1cc(-c2ccc(NC(=O)NCc3ccccc3)cc2)no1)C(=O)O` (stereo not drawn) [Example 110, 2-(3-(4-(3-Benzylureido)phenyl)isoxazole-5-carboxamido)-4-methyl pentanoic acid] fall in the same range of inhibition at 10 µM: 0 to 50% for the first, 0 to 50% for the second.

Compared with `COC(=O)C(CC(C)C)NC(=O)c1cc(-c2ccc(NC(=O)Nc3ccc(F)cc3F)cc2)no1` (stereo not drawn) [Example 113, Methyl 2-(3-(4-(3-(2,4-difluorophenyl)ureido)phenyl)isoxazole-5-carboxamido)-4-methylpentanoate], `CC(C)CC(NC(=O)c1cc(-c2ccc(NC(=O)Nc3ccc(F)cc3F)cc2)no1)C(=O)O` (stereo not drawn) [Example 114, 2-(3-(4-(3-(2,4-Difluorophenyl)ureido)phenyl)isoxazole-5-carboxamido)-4-methylpentanoic acid] is higher in inhibition at 10 µM: 0 to 50% for the first, 75 to 100% for the second.

Compared with `COC(=O)C(C)NC(=O)c1cc(-c2ccc(NC(=O)Nc3ccc(F)cc3)cc2)no1` (stereo not drawn) [Example 115, Methyl 2-(3-(4-(3-(4-fluorophenyl)ureido)phenyl)isoxazole-5-carboxamido)propanoate], `CC(NC(=O)c1cc(-c2ccc(NC(=O)Nc3ccc(F)cc3)cc2)no1)C(=O)O` (stereo not drawn) [Example 116, 2-(3-(4-(3-(4-fluorophenyl)ureido)phenyl)isoxazole-5-carboxamido) propanoic acid] is higher in inhibition at 10 µM: 0 to 50% for the first, 75 to 100% for the second.

`COC(=O)C(C)(C)NC(=O)c1cc(-c2ccc(NC(=O)Nc3ccc(F)cc3)cc2)no1` [Example 117, Methyl 2-(3-(4-(3-(4-fluorophenyl)ureido)phenyl)isoxazole-5-carboxamido)-2-methylpropanoate] and `CC(C)(NC(=O)c1cc(-c2ccc(NC(=O)Nc3ccc(F)cc3)cc2)no1)C(=O)O` [Example 118, 2-(3-(4-(3-(4-fluorophenyl)ureido)phenyl)isoxazole-5-carboxamido)-2-methylpropanoic acid] fall in the same range of inhibition at 10 µM: 50 to 75% for the first, 50 to 75% for the second.

`COC(=O)C1(NC(=O)c2cc(-c3ccc(NC(=O)Nc4ccc(F)cc4)cc3)no2)CCCC1` [Example 119, Methyl 1-(3-(4-(3-(4-fluorophenyl)ureido)phenyl)isoxazole-5-carboxamido)cyclopentanecarboxylate] and `O=C(Nc1ccc(F)cc1)Nc1ccc(-c2cc(C(=O)NC3(C(=O)O)CCCC3)on2)cc1` [Example 120, 1-(3-(4-(3-(4-fluorophenyl)ureido)phenyl)isoxazole-5-carboxamido) cyclopentanecarboxylic acid] fall in the same range of inhibition at 10 µM: 50 to 75% for the first, 50 to 75% for the second.

First: COC(=O)C(C)(C)NC(=O)c1cc(-c2ccc(NC(=O)Nc3ccccc3)cc2)no1 [Example 121, Methyl 2-methyl-2-(3-(4-(3-phenylureido)phenyl)isoxazole-5-carboxamido)propanoate]
Second: CC(C)(NC(=O)c1cc(-c2ccc(NC(=O)Nc3ccccc3)cc2)no1)C(=O)O [Example 122, 2-methyl-2-(3-(4-(3-phenylureido)phenyl)isoxazole-5-carboxamido) propanoic acid]
The inhibition at 10 µM of the first is lower: 50 to 75% for the first, 75 to 100% for the second.

Molecule `COC(=O)C(NC(=O)c1cc(-c2ccc(NC(=O)Nc3c(F)cccc3F)cc2)no1)C(C)C` (stereo not drawn) [Example 123, Methyl 2-(3-(4-(3-(2,6-difluorophenyl)ureido)phenyl)isoxazole-5-carboxamido)-3-methylbutanoate] has an inhibition at 10 µM of 50 to 75%.
